The values that follow come from US20060160897A1, “Topical Use of Valproic Acid for the Prevention or Treatment of Skin Disorders” (priority 2003, published 2006).

Series [1] relates to HaCaT cells. The experiment in a line: MTT assay, growth of human immortalized keratinocytes. It is filed as cell-based. On the procedure: MTT assay: This calorimetric assay detects the formation of formazan which is proportional to the number of cells present. Tissue culture medium containing drugs was removed and 200 μl of DME containing 2 mg/ml MTT ((3-4, 5-dimethyl thiazol-2yl) 2,5-diphenyltetrazolium bromide) was added to each well. 96-well plates were incubated at 37 ° C., and 10% CO2 for 30 minutes. Medium containing MTT was then removed and the cells were washed once with PBS. Following removal of the PBS, 200 μL DMSO was added to each well and plates were placed on a rotating platform shaker for 5 minutes. Results were obtained by reading the absorbance at a wavelength of 550 nm using a spectrophotometer. Results are expressed as percentages setting the control as 100%.
FIG. 1 graphically depicts the results of growth assays performed on human immortalized keratinocytes (HaCaT cells), treated for three days with the indicated compounds. Drugs were added on the same day of plating (day 0). The MTT assay (to measure cell proliferation) was carried out on day 3. Various combinations of the drugs were used in the growth assays.
Cells were plated in wells on day 0. […] The MTT assay was carried out on day 3. Various combinations of the drugs were also used in the growth assays. […] Thus, the combinatorial activity of these two drugs must be explained via synergistic activity of this treatment.
Drugs were added on the same day of plating (day 0). The MTT assay (to measure cell proliferation) was carried out on the third day. […] Thus, this combinatorial activity of these two drugs must be explained via synergistic activity of this treatment.
A general note: Tetrazolium dyes change colour on reduction, which living cells bring about.

For series [2], the system named is HaCaT cells. The experiment in a line: Apoptosis assay, flow cytometry of Sub-G1 DNA containing cells. Particulars: drugs day 1, assay day 2, combinations VPA 1 mM + Tazarotene 1 or 2 μM, FIG. 5. It is filed as cell-based, human. On the procedure: Apoptosis assays: Apoptosis was measured by a Beckton Dickinson FACScalibur flow cytometer by analysing the percentage of Sub-G1 DNA containing cells. 10000 events were recorded for each sample. The amplification scale was linear for all parameters. Photomultiplier tension was set as to place the peak DNA content corresponding cells in G0/G1 at channel 300 in the FL2-H vs SCC—H graphs. Cells showing a less than peak DNA content (hypodiploid cells) and high SSC—H (granular high condensed cells) were regarded as apoptotic. The experiments were repeated three times in duplicate. Error bars represent 1 standard deviation.
Cells were plated in 35 mm diameter wells on day 0. Drugs were added on day 1. The apoptosis assay was carried out on day 2. […] Thus, the combinatorial activity of these two drugs must be explained via synergistic activity of this treatment.
On the technique in general: Flow cytometry measures light scatter and fluorescence of single cells or particles in a stream.

Series [3] in a line: In vitro skin permeation assay, Franz type diffusion cell with SCE membranes. It is filed as in vitro ADME, human. The following applies: sodium valproate 3% (w/w) in Sepigel gel, SCE membranes 0.75 cm^2, 10 h, 35° C.; FIG. 6. The method, then:
The resulting gel was stored at room temperature for 24 h prior to use.
In vitro skin permeation assay: The analyses were carried out using a Franz type glass diffusion cell (LGA, Berkeley, Calif., USA) assembled with membranes carrying stratum corneum and epidermis (SCE). Adult human skin samples (mean age 29±5 years) were obtained from abdominal reduction surgery. Subcutaneous fat was trimmed and the skin samples were immersed in distilled water at 60° C. for 1 min; then stratum corneum and epidermis (SCE) were peeled off The SCE samples were dried at room temperature in a desiccator maintained at approximately 25% relative humidity. […] Skin barrier integrity of the SCE membranes used in this protocol was assessed by determining their tritiated water permeability coefficient (Kp). […] All samples were analyzed for sodium valproate contents by means of an HPLC with spectrofluorimetric detection. The results were expressed as total amount permeated (mg).
Quantitative determination of Sodium Valproate: To determine sodium valproate, samples were derivatized with 4-bromomethyl-7-methoxycoumarin (BMMC). […]
Adult human skin samples (skin surface area was 0.75 cm^2) were prepared as described in the methods section. […] All samples were analyzed for sodium valproate contents by means of an HPLC with spectrofluorimetric detection. The results were expressed as total amount permeated (mg).

Series [4] deals with HaCaT cells. Briefly: BrdU incorporation assay. It is filed as cell-based, human. Particulars: VPA added day 0, assay day 2, FIG. 4. The method, then:
BrdU incorporation assays: Cell proliferation was detected by labeling cells with BrdU. […] Cells were incubated for 1 hour in the culture medium and then fixed with 70% ethanol. The incorporated BrdU was detected by the indirect immunoperoxidase method (Amersham, Arlington Heights, Ill.). Briefly, the culture cells were first incubated for 1 hour with Biotin-Mouse Anti-BrdU antibody. After washing in TTBS buffer (20 mM Tris, 500 mM NaCl, 0.05% Tween-20, pH 7.5), the cells were further incubated with Biotinylated goat anti-mouse immunoglobulins for 10 min. Cells were then washed and incubated with enzyme (peroxidase) conjugate for 10 min at room temperature. […] The positive cells were counted on 10 randomly picked microscopic fields. HaCaT cells were plated in 35 mm diameter wells on day 0. […] The BrdU assay was carried out on day 2.
(Incorporation of labelled thymidine or its analogues reports DNA synthesis.)

As to `CCCC(CCC)C(=O)O` [VPA, 2-propyl-pentanoic acid], the “cell growth (MTT assay)” value in the series on HaCaT cells [1] (MTT on day 3, combinations VPA 1 mM + Retinoic Acid 1 or 2 μM, FIG. 2) is given as “inhibited growth”; in the series on HaCaT cells [1] (MTT on the third day, 5 μM or 10 μM 5-FU and 1 mM VPA, FIG. 3), “inhibited growth”; with HaCaT cells [1] (treated three days, MTT on day 3, combinations VPA 1 mM + Tazarotene 1 or 2 μM, FIG. 1), “inhibited cell growth”. The “apoptosis (Sub-G1 DNA containing cells)” value with HaCaT cells [2] was “clear increase in subG1 DNA content”. Also, the “permeation of human skin (total amount permeated)” value in series [3] is given as “permeates the skin in a time dependent manner”. Further, in the series with HaCaT cells [4], the “BrdU positive cells (cell cycle arrest)” value is recorded as “dose-dependent reduction of BrdU positive cells”.
